# Measurements from PubChem BioAssay (NCI).
# Several values for one entry are separate records, joined by “and”; a condition that tells them apart may be missing. Equal values may be shown once.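 In this assay, cells in 96-well plates receive the compound at five concentrations for 48 hours. Endpoints are linearly interpolated between the surrounding concentrations. GI50 = concentration required for 50% inhibition of growth. The concentration for full growth arrest is given as TGI.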
# Tests used:
# Test in all cases: NCI anticancer screen, dose series, 48 h
# [1] = system: 786-0 renal
# [2] = system: OVCAR-4 ovarian
# [3] = system: HS 578T breast
# [4] = system: HCC-2998 colon
# [5] = system: HOP-92 NSCLC
# [6] = system: HL-60(TB) leukemia
# [7] = system: SF-268 CNS
# [8] = system: SK-MEL-28 melanoma
# [9] = system: UO-31 renal
# [10] = system: MCF7 breast
SMILES,GI50 [1],TGI [1],GI50 [2],TGI [2],GI50 [3],TGI [3],GI50 [4],TGI [4],GI50 [5],TGI [5],GI50 [6],TGI [6],GI50 [7],TGI [7],GI50 [8],TGI [8],GI50 [9],TGI [9],GI50 [10],TGI [10]
O=C1C(=O)c2c(nc3ccc(C(F)(F)F)cn23)-c2ccccc21,0.396 µM,0.835 µM,0.137 µM,0.271 µM,0.206 µM,0.523 µM,0.499 µM,0.988 µM,0.265 µM,0.773 µM,0.201 µM,0.6 µM,0.224 µM,0.609 µM,0.221 µM,0.431 µM,0.164 µM,0.345 µM,0.168 µM,0.4 µM
N#Cc1nc(CCc2nc(C#N)c(N)o2)oc1N,,> 10 µM,,> 10 µM,,> 10 µM,,> 10 µM,,> 10 µM,,> 10 µM,,> 10 µM,,> 10 µM,,> 10 µM,,> 10 µM
Cn1c(I)c(C#C[Si](C)(C)C)c(=O)n(C(=O)c2ccccc2)c1=O,3.49 µM,11.7 µM,4.59 µM,15.1 µM,7.12 µM,23.6 µM,6.78 µM,21.6 µM,2.6 µM,13.6 µM,1.52 µM,> 51.5 µM,3.22 µM,10.2 µM,2.03 µM,3.8 µM,2.66 µM,11.9 µM,1.92 µM,5.65 µM
N=C1CCCC1C(=S)SCCC(N)=O (stereo unspecified),,> 100 µM,,> 100 µM,,> 100 µM,,> 100 µM,,> 100 µM,,> 100 µM,,> 100 µM,,> 100 µM,,> 100 µM,,> 100 µM
COC1=CC(c2ccc[nH]2)=N/C1=C\c1[nH]c(C)c(C(=O)CCCCCCCCC(=O)O[C@H]2CC[C@H]3C4CCc5cc(O)ccc5C4CC[C@]23C)c1C (stereo partly specified),0.787 µM,> 12.8 µM,0.343 µM,> 50 µM,0.411 µM,> 33.9 µM,0.623 µM,> 50 µM,0.167 µM,1.43 µM,0.289 µM,> 50 µM,0.429 µM,> 50 µM,0.841 µM,> 50 µM,1.18 µM,5.3 µM,0.37 µM,> 50 µM
Nc1cc2c3c(cccc3c1)C(=O)N(CCN1CCCC1)C2=O,4.5 µM,> 55.7 µM,4.75 µM,42.5 µM,4.83 µM,35 µM,2.78 µM,15 µM,2.94 µM,> 54.4 µM,4.16 µM,> 100 µM,4.62 µM,30.5 µM,4.28 µM,18.2 µM,2.35 µM,> 100 µM,1.18 µM,35.6 µM
[N-]=[N+]=CC(=O)CCC(N)C(=O)O (stereo unspecified),7.17 µM,> 250 µM,4.2 µM,> 206 µM,42.2 µM,> 250 µM,62.7 µM,> 250 µM,,69.3 µM,2.3 µM,208 µM,1.65 µM,190 µM,15.3 µM,202 µM,8.31 µM,219 µM,0.641 µM,> 250 µM
O=C(Nc1ccc(Cl)cc1C(F)(F)F)C(=O)Nn1c(=S)[nH]c2ccccc2c1=O,,> 100 µM,,> 100 µM,,> 100 µM,,> 100 µM,,> 100 µM,,> 100 µM,,> 100 µM,,> 100 µM,,> 100 µM,,> 100 µM
Cc1ccc(/C(=N/Nc2ccc([N+](=O)[O-])cc2)Sc2cc(Cl)c(C)cc2S(N)(=O)=O)cc1,1.82 µM,3.37 µM,1.28 µM,3.75 µM,2.45 µM,> 23.5 µM,1.76 µM,3.66 µM,1.45 µM,3.77 µM,11.9 µM,42.1 µM,1.91 µM,7.37 µM,3.03 µM,8.9 µM,2.56 µM,10.7 µM,2.6 µM,> 21.5 µM
C[C@@]1(F)[C@H](O)[C@@H](CO)O[C@H]1n1ccc(=O)[nH]c1=O,> 100 µM,> 100 µM,> 100 µM,> 100 µM,> 100 µM,> 100 µM,> 100 µM,> 100 µM,> 100 µM,> 100 µM,> 100 µM,> 100 µM,> 100 µM,> 100 µM,> 100 µM,> 100 µM,> 100 µM,> 100 µM,> 100 µM,> 100 µM
CCCCCCCC(=O)OCC/C=C/C1OC1C1OC(=O)/C=C\C=C\C(=O)N(C(C)=O)C(=O)/C=C(/C)CCC2OC2C1OC(=O)NC(C)=O (stereo unspecified),4.12 µM,11.1 µM,7.37 µM,> 25 µM,5.22 µM,15.8 µM,7.35 µM,19.1 µM,0.823 µM,7.38 µM,8.18 µM,> 25 µM,4.6 µM,12.1 µM,5.12 µM,14.3 µM,1.82 µM,10.8 µM,1.7 µM,11.5 µM
COC1=CC(=O)O/C1=C(\OC)C1OC1c1ccccc1 (stereo unspecified),,> 100 µM,,> 100 µM,,> 100 µM,,> 100 µM,,> 100 µM,,> 100 µM,,> 100 µM,,> 100 µM,,> 100 µM,,> 100 µM
NCCO/C=C/C(N)C(=O)O (stereo unspecified),,> 100 µM,,> 100 µM,,> 100 µM,,> 100 µM,,> 100 µM,,> 100 µM,,> 100 µM,,> 100 µM,,> 100 µM,,> 100 µM
CC1(C)CC(C)(C)c2cc(NC(=S)Nc3ccc([N+](=O)[O-])cc3)ccc2S1,17 µM,> 55.5 µM,14.8 µM,60.4 µM,24.2 µM,58.3 µM,4.42 µM,24.6 µM,19.1 µM,36.5 µM,30.2 µM,> 85.3 µM,26.5 µM,> 53.7 µM,17.2 µM,68.5 µM,12.4 µM,39.4 µM,29.1 µM,> 82.1 µM
COc1ccc(-c2ccc(OC)c(OC)c2OC)cc1,8.23 µM,82.2 µM,5.42 µM,> 100 µM,1.82 µM,> 23.1 µM,2.65 µM,32 µM,1.32 µM,63 µM,1.04 µM,9.93 µM,9.28 µM,> 100 µM,14.9 µM,> 100 µM,4.6 µM,> 100 µM,1.77 µM,> 100 µM
COc1cccc2c1C(=O)c1c(O)c3c(c(O)c1C2=O)C[C@@](O)(C(C)=O)CC3OC1CC(OC2CC(N)C(O)C(C)O2)C(O)C(C)O1 (stereo partly specified),,> 100 µM,,> 100 µM,,> 100 µM,,> 100 µM,,> 100 µM,,34.8 µM,,> 100 µM,,> 100 µM,,> 100 µM,,> 59.6 µM
Cn1c(COC(=O)NCCn2ccnc2)nc2c(N3CCOCC3)nc(-c3ccccc3)nc21,0.72 µM,2.1 µM,0.692 µM,1.97 µM,1.06 µM,3.59 µM,1.41 µM,2.9 µM,0.343 µM,1.72 µM,0.615 µM,2.48 µM,1.29 µM,2.66 µM,1.33 µM,2.62 µM,0.441 µM,1.74 µM,0.356 µM,1.89 µM
O=C1NC(=NCCc2ccc(Cl)cc2)S/C1=C\c1ccc2ncccc2c1,14.3 µM,> 25 µM,8.94 µM,> 25 µM,9.77 µM,> 25 µM,> 25 µM,> 25 µM,7.32 µM,> 25 µM,8.69 µM,> 25 µM,11.7 µM,> 25 µM,> 25 µM,> 25 µM,> 18.9 µM,> 25 µM,10.2 µM,> 25 µM
O=c1c(-c2ccc3c(c2)OCO3)coc2c3c(ccc12)OCO3,,35.5 µM,,70.6 µM,,59.4 µM,,> 100 µM,,38.5 µM,,> 100 µM,,43.3 µM,,> 100 µM,,> 100 µM,,33.7 µM
CCOC(=O)Nc1ccc2nc(-c3cscn3)[nH]c2c1,9.16 µM,> 100 µM,48.9 µM,> 100 µM,8.3 µM,92.6 µM,18.5 µM,> 100 µM,> 26.2 µM,> 100 µM,3.17 µM,> 100 µM,18 µM,> 100 µM,7.23 µM,> 100 µM,8.77 µM,> 100 µM,2.68 µM,> 100 µM
CC(C)(C)C[C@H]1N[C@@H](C(=O)NC2CCC(O)CC2)[C@H](c2cccc(Cl)c2F)[C@@]12C(=O)Nc1cc(Cl)ccc12 (stereo partly specified),4.22 µM,15.4 µM,5.6 µM,18.7 µM,6.51 µM,56.8 µM,3.64 µM,13.1 µM,3.28 µM,15 µM,2.66 µM,7.06 µM,12 µM,25.8 µM,3.28 µM,11.7 µM,0.646 µM,11.1 µM,0.228 µM,2.98 µM
Cn1c(COC(=O)NCCc2ccccn2)nc2c(N3CCOCC3)nc(Cl)nc21,1.34 µM,2.95 µM,1.62 µM,3.63 µM,2 µM,6.22 µM,1.76 µM,3.57 µM,1.13 µM,3.22 µM,1.17 µM,4.61 µM,1.52 µM,3.11 µM,1.7 µM,3.47 µM,1.19 µM,2.45 µM,0.946 µM,2.95 µM
OCc1ccc(N(Cc2ccc(F)cc2)Cc2ccc(F)cc2)cc1Cl,11.6 µM,25.5 µM,3.01 µM,14.7 µM,16.2 µM,45.5 µM,14.3 µM,30.8 µM,2.21 µM,10.2 µM,14.5 µM,35.4 µM,12.4 µM,26.9 µM,13.9 µM,27.6 µM,3.49 µM,16.2 µM,3.72 µM,17 µM
Clc1ccccc1C(Nc1cnccn1)Nc1cnccn1,,> 100 µM,,> 100 µM,,> 100 µM,,> 100 µM,,> 100 µM,,> 100 µM,,> 100 µM,,> 100 µM,,> 100 µM,,> 100 µM
CC1CCC2C(C)C(=O)OC2C2(C)C(=O)C=CC12 (stereo unspecified),,> 10 µM,,> 10 µM,,> 10 µM,,> 10 µM,,> 10 µM,,> 10 µM,,> 10 µM,,> 10 µM,,> 10 µM,,> 10 µM
COc1ccc(-n2c(=S)sc3c(Cl)nc(C)nc32)c(OC)c1,4.42 µM,20.4 µM,4.73 µM,15.6 µM,2.66 µM,7.71 µM,16.2 µM,31.1 µM,2.06 µM,8.46 µM,1.43 µM,5.83 µM,2.17 µM,5.21 µM,2.18 µM,4.6 µM,3.62 µM,15.4 µM,3.67 µM,15.6 µM
COc1cc2c(cc1C)NC(=O)/C2=C/c1ccnc2ccccc12,35.3 µM,> 50 µM,,,40.1 µM,> 50 µM,35.7 µM,> 50 µM,12.4 µM,> 50 µM,30.7 µM,> 50 µM,18 µM,> 50 µM,11.2 µM,46.8 µM,18.9 µM,> 50 µM,8.72 µM,> 50 µM
C[C@@H]1C[C@@H]([C@H](O)CC2CC(=O)NC(=O)C2)C(=O)[C@@H](C)C1,0.186 µM,3.31 µM and 3.56 µM,0.299 µM,4.97 µM and 1.2 µM,0.488 µM,,0.325 µM,7.93 µM and 3.63 µM,0.178 µM,7.57 µM and 2.05 µM,0.202 µM,2.14 µM and 0.43 µM,0.264 µM,1.94 µM,0.249 µM,2.01 µM and 1.34 µM,0.23 µM,4.63 µM and 0.675 µM,0.216 µM,7.15 µM
